Like-named read-outs stand apart in the source and are kept apart here.
Legend:
weeds = experiment: Postemergence herbicidal action (contact herbicide), compounds of formula I, overall; assay type: in vivo; settings: 4 kg a.i./ha, 15 days later
Description: (§1) The weeds to be tested are sprayed postemergence (in the 4- to 6-leaf stage) with an aqueous dispersion prepared from compounds of formula I formulated as (a) a 10% or (b) a 25% wettable powder or (c) a 25% emulsifiable concentrate, at a rate of application of 4 kg a.i./ha. The plants are kept at 24°-26° C. and 45-60% relative humidity. The test is evaluated 15 days later in accordance with the same rating as used in the preemergence test (Example 19).

Solanum [1] = experiment: Postemergence herbicidal action (contact herbicide), compounds of formula I, Solanum; assay type: in vivo; design: key: 1: plants have not germinated or have completely died off; 2-3: very pronounced action; 4-6: medium action; 7-8: slight action; 9: no action (as untreated controls); settings: 4 kg a.i./ha, 15 days
Description: as §1

Sinapis [2] = experiment: Postemergence herbicidal action (contact herbicide), compounds of formula I, Sinapis; assay type: in vivo; design: key: 1: plants have not germinated or have completely died off; 2-3: very pronounced action; 4-6: medium action; 7-8: slight action; 9: no action (as untreated controls); settings: 4 kg a.i./ha, 15 days
Description: as §1

Setaria [3] = experiment: Postemergence herbicidal action (contact herbicide), compounds of formula I, Setaria; assay type: in vivo; settings: 4 kg a.i./ha, 15 days
Description: as §1

Erysiphe graminis = experiment: Action against Erysiphe graminis on barley; assay type: in vivo; settings: 0.02% spray mixture, 10 days
Description: Barley plants about 8 cm in height are sprayed with a spray mixture (0.02% of compound of formula I) prepared from a 25% emulsifiable concentrate. After 3-4 hours the plants are dusted with conidia of Erysiphe graminis. The infected barley plants are then stood in a greenhouse at about 22° C. Evaluation of fungus attack is made 10 days later.

wheat [4] = experiment: Stimulation of root growth in wheat (plastic cylinders, 10 days); assay type: in vivo; settings: seed treatment 4-130 mg per kg of seeds or soil spray 0.3 to 3 kg/ha; after 10 days
Description: Compounds of formula I are applied in the form of aqueous dispersions prepared from a 25% wettable powder. The test is carried out with seeds which are sown in plastic cylinders measuring 5×30 cm and filled with soil (10 seeds per cylinder). The seeds are (a) treated before sowing at rates of application of 4-130 mg per kg of seeds or (b) are untreated and the soil is sprayed with a dispersion of the active ingredient at rates of application of 0.3 to 3 kg/ha. The cylinders are kept under controlled conditions in a climatic chamber. After 10 days, the seedlings are carefully washed with water to remove the soil and the length and dry weight of the roots are assessed.

wheat [5] = experiment: Stimulation of root growth in wheat (plastic boxes, 30 days); assay type: in vivo; settings: for root dry weight expressed as % of controls / root length expressed as % of controls: 30 days, controls = 100%
Description: (§2) Compounds of formula I are employed in the form of aqueous dispersions prepared from a 25% wettable powder. The test is carried out with seeds which are sown in plastic boxes measuring 5×35×60 cm and filled with soil (15 seeds per box). The seeds are treated before sowing at rates of application of 45-500 mg per kg of seeds. The boxes are kept under controlled conditions in a climatic chamber. After 30 days, the plants are carefully washed with water to remove the soil and the length and dry weight of the roots are assessed.

cotton = experiment: Stimulation of root growth in cotton (plastic boxes, 30 days); assay type: in vivo; settings: for root dry weight expressed as % of controls / root length expressed as % controls: 30 days, controls = 100%
Description: as §2

mould fungi = experiment: Action against mould fungus on moist maize; assay type: in vivo, mixed population of mould fungi; settings: for reduction of fungus attack compared with untreated controls: 0.06% a.i.
Description: Dry maize grains (portions of 80 g each) are thoroughly mixed in sealable plastic beakers with an aqueous suspension prepared from a 25% wettable powder formulation of a compound of formula I. The application is so adjusted as to give a concentration of 0.06% of active ingredient, based on the weight of dry maize. A moistened slip of paper provides for a saturated humid atmosphere in the beakers which are filled with maize and then sealed. A mixed population of mould fungi develops spontaneously after incubation for 2-3 weeks at about 20° C. in the maize samples which have been treated only with water. The effectiveness of the test compounds is assessed by evaluating the degree of fungus development after 3 weeks.
A visual assessment is made after each month according to the same criteria as specified above.

soya bean plants = experiment: Regulation of the growth of soya bean plants; settings: controls = 100%
Xanthomonas oryzae [6] = assay type: in vivo; settings: for bactericidal properties in words: residual-protective action
Xanthomonas oryzae [7] = assay type: in vivo; settings: for bactericidal activity: based on the volume of the soil
Setaria [8] = experiment: Preemergence herbicidal action (inhibition of germination), Setaria; assay type: in vivo; design: key to preemergence herbicidal action rating: 1: plants have not germinated or have completely died off; 2-3: very pronounced action; 4-6: medium action; 7-8: slight action; 9: no action (as untreated controls); settings: 4 kg a.i./ha, after 3 weeks
Description: (§3) In a greenhouse, immediately after sowing seeds of test plants in seed dishes, the surface of the soil is treated with an aqueous dispersion prepared from a 10% wettable powder formulation of test compounds of formula I. Concentrations of 4 kg of active ingredient per hectare are used. The seed dishes are kept in the greenhouse at 22°-25° C. and 50-70% relative humidity, and the test is evaluated after 3 weeks in accordance with the following rating: […]

Stellaria = experiment: Preemergence herbicidal action (inhibition of germination), Stellaria; assay type: in vivo; design: key to preemergence herbicidal action rating: 1: plants have not germinated or have completely died off; 2-3: very pronounced action; 4-6: medium action; 7-8: slight action; 9: no action (as untreated controls); settings: 4 kg a.i./ha, after 3 weeks
Description: as §3

Sinapis [9] = experiment: Preemergence herbicidal action (inhibition of germination), Sinapis; assay type: in vivo; settings: 4 kg a.i./ha, after 3 weeks
Description: as §3

Phaseolus = experiment: Postemergence herbicidal action (contact herbicide), compounds of formula II, Phaseolus; assay type: in vivo; design: key to postemergence herbicidal action rating: 1: plants completely withered; 2-3: very pronounced action; 4-6: medium action; 7-8: insignificant action; 9: no action (as untreated controls); settings: 4 kg a.i./ha, 15 days; for postemergence herbicidal action rating: 25% wettable powder; for herbicidal action in words: postemergence
Description: (§4) The plants for testing are sprayed postemergence (in the 4- to 6-leaf stage) at a concentration of 4 kg a.i./ha with an aqueous dispersion prepared from a compound of formula II formulated as a 25% wettable powder. The plants are then kept at 24°-26° C. and 45-60% relative humidity. The test is evaluated 15 days later according to the following rating: […]

Solanum [10] = experiment: Postemergence herbicidal action (contact herbicide), compounds of formula II, Solanum; assay type: in vivo; design: key to postemergence herbicidal action rating: 1: plants completely withered; 2-3: very pronounced action; 4-6: medium action; 7-8: insignificant action; 9: no action (as untreated controls); settings: 4 kg a.i./ha, 15 days; for postemergence herbicidal action rating: 25% wettable powder; for herbicidal action in words: postemergence
Description: as §4

[11] = formulation (c) 25% emulsifiable concentrate
[12] = seed treatment 45-500 mg per kg of seeds, after 30 days
[13] = formulation (b) 25% wettable powder
[14] = formulation (a) 10% wettable powder

Compound: COP(=O)(OC)c1cc(Oc2ccc(C(F)(F)F)cn2)ccc1[N+](=O)[O-] [Compound 1]
- postemergence effectiveness in words (weeds): very effective
- postemergence herbicidal action rating (Solanum [1]; [11]): 4
- postemergence herbicidal action rating (Sinapis [2]; [11]): 3
- postemergence herbicidal action rating (Setaria [3]; [11]): 4
- reduction of fungus attack compared with untreated controls (Erysiphe graminis; 25% emulsifiable concentrate, untreated = 100% attack): 80-95%
- effectiveness in words (Erysiphe graminis): particularly effective

Compound: O=[N+]([O-])c1ccc(Oc2ccc(C(F)(F)F)cn2)cc1P(=O)(O)O [Compound 3]
- root growth stimulation effectiveness in words (wheat [4]): very effective
- root dry weight expressed as % of controls (wheat [5]; 45 mg a.i./kg of seeds): 105 % of controls
- root length expressed as % of controls (wheat [5]; 45 mg a.i./kg of seeds): 98 % of controls
- root dry weight expressed as % of controls (wheat [5]; 150 mg a.i./kg of seeds): 112 % of controls
- root length expressed as % of controls (wheat [5]; 150 mg a.i./kg of seeds): 107 % of controls
- root dry weight expressed as % of controls (wheat [5]; 500 mg a.i./kg of seeds): 110 % of controls
- root length expressed as % of controls (wheat [5]; 500 mg a.i./kg of seeds): 107 % of controls
- root growth stimulation effectiveness in words (wheat [5]; [12]): every effective
- root dry weight expressed as % of controls (cotton; 45 mg a.i./kg of seeds): 105 % of controls
- root length expressed as % controls (cotton; 45 mg a.i./kg of seeds): 122 % controls
- root dry weight expressed as % of controls (cotton; 150 mg a.i./kg of seeds): 97 % of controls
- root length expressed as % controls (cotton; 150 mg a.i./kg of seeds): 111 % controls
- root dry weight expressed as % of controls (cotton; 500 mg a.i./kg of seeds): 129 % of controls
- root length expressed as % controls (cotton; 500 mg a.i./kg of seeds): 122 % controls
- root growth stimulation effectiveness in words (cotton; [12]): every effective
- reduction of fungus attack compared with untreated controls (mould fungi; after 3 weeks): 80-95%
- reduction of fungus attack compared with untreated controls (mould fungi; after 3 weeks and a further month): 80-95%
- reduction of fungus attack compared with untreated controls (mould fungi; after 3 weeks, a further month and yet a further month): 50-80%
- fungicidal activity in words (mould fungi; 0.06% of active ingredient on dry maize): particularly pronounced fungicidal activity
- Weight of pods as % of controls (soya bean plants; 0.08 kg a.i./ha): 119 % of controls
- no. of pods as % of controls (soya bean plants; 0.08 kg a.i./ha): 107 % of controls
- Weight of pods as % of controls (soya bean plants; 0.40 kg a.i./ha): 119 % of controls
- no. of pods as % of controls (soya bean plants; 0.40 kg a.i./ha): 119 % of controls
- Weight of pods as % of controls (soya bean plants; 0.80 kg a.i./ha): 135 % of controls
- no. of pods as % of controls (soya bean plants; 0.80 kg a.i./ha): 109 % of controls
- Weight of pods as % of controls (soya bean plants; 4.00 kg a.i./ha): 108 % of controls
- no. of pods as % of controls (soya bean plants; 4.00 kg a.i./ha): 98 % of controls

Compound: COP(=O)(OC)c1cc(Oc2ncc(Cl)cc2Cl)ccc1[N+](=O)[O-] [Compound 4, Dimethyl 2-nitro-5-(3',5'-dichloro-2'-pyridyloxy)phenylphosphonate]
- postemergence effectiveness in words (weeds): very effective
- postemergence herbicidal action rating (Solanum [1]; [13]): 2
- postemergence herbicidal action rating (Sinapis [2]; [13]): 3
- postemergence herbicidal action rating (Setaria [3]; [13]): 3
- action (Xanthomonas oryzae [6]; concentration of 0.0006%): 80-95%
- action (Xanthomonas oryzae [6]; concentration of 0.006%): over 95%
- bactericidal properties in words (Xanthomonas oryzae [6]): pronounced bactericidal properties
- bactericidal activity (Xanthomonas oryzae [7]; concentration of 0.0006%): 50-80%
- bactericidal activity (Xanthomonas oryzae [7]; concentration of 0.006%): over 95%
- bactericidal activity in words (Xanthomonas oryzae [7]; systemic action): pronounced bactericidal activity

Compound: COP(=O)(OC)c1cc(Oc2ncc(C(F)(F)F)cc2Cl)ccc1[N+](=O)[O-] [Compound 6, Dimethyl 2-nitro-5-(3'-chloro-5'-trifluoromethyl-2'-pyridyloxy)phenylphosphonate]
- preemergence herbicidal action rating (Setaria [8]; 10% wettable powder): 1
- preemergence effectiveness in words (Setaria [8]): very effective
- preemergence herbicidal action rating (Stellaria; 10% wettable powder): 1
- preemergence effectiveness in words (Stellaria): very effective
- preemergence herbicidal action rating (Sinapis [9]; 10% wettable powder): 2
- preemergence effectiveness in words (Sinapis [9]): very effective
- postemergence effectiveness in words (weeds): very effective
- postemergence herbicidal action rating (Solanum [1]; [14]): 1
- postemergence herbicidal action rating (Sinapis [2]; [14]): 1
- postemergence herbicidal action rating (Setaria [3]; [14]): 3
- action (Xanthomonas oryzae [6]; concentration of 0.02%): over 95%
- bactericidal properties in words (Xanthomonas oryzae [6]): pronounced bactericidal properties

Compound: CCOP(=O)(OCC)c1cc(Oc2ncc(C(F)(F)F)cc2Cl)ccc1[N+](=O)[O-] [Compound 7, Diethyl 2-nitro-5-(3'-chloro-5'-trifluoromethyl-2'-pyridyloxy)phenylphosphonate]
- postemergence effectiveness in words (weeds): very effective
- postemergence herbicidal action rating (Solanum [1]; [11]): 1
- postemergence herbicidal action rating (Sinapis [2]; [11]): 2
- postemergence herbicidal action rating (Setaria [3]; [11]): 3

Compound: CCOP(=O)(OCC)c1cc(Oc2ncc(Cl)cc2Cl)ccc1[N+](=O)[O-] [Compound 9, Diethyl 2-nitro-5-(3',5'-dichloro-2'-pyridyloxy)phenylphosphonate]
- postemergence effectiveness in words (weeds): very effective
- postemergence herbicidal action rating (Solanum [1]; [11]): 1
- postemergence herbicidal action rating (Sinapis [2]; [11]): 2
- postemergence herbicidal action rating (Setaria [3]; [11]): 2

Compound: O=[N+]([O-])c1ccc(Oc2ncc(C(F)(F)F)cc2Cl)cc1[N+](=O)[O-] [II-2, 1,2-dinitro-4-(3'-chloro-5'-trifluoromethyl-2'-pyridyloxy)benzene]
- postemergence herbicidal action rating (Phaseolus): 1
- herbicidal action in words (Phaseolus): excellent herbicidal action
- postemergence herbicidal action rating (Solanum [10]): 1
- herbicidal action in words (Solanum [10]): excellent herbicidal action

Compound: O=[N+]([O-])c1ccc(Oc2ccc(C(F)(F)F)cn2)cc1[N+](=O)[O-] [II-3, 1,2-dinitro-4-(5'-trifluoromethyl-2'-pyridyloxy)benzene]
- postemergence herbicidal action rating (Phaseolus): 1
- herbicidal action in words (Phaseolus): excellent herbicidal action
- postemergence herbicidal action rating (Solanum [10]): 3
- herbicidal action in words (Solanum [10]): excellent herbicidal action

Source: patent publication US4451284A, “Derivatives of 2-nitro-4- or -5-pyridyloxyphenylphosphonic acid, the preparation thereof, the use thereof as herbicides and/or plant growth regulators” (Ciba-Geigy Corporation, priority 1981, dated 1984)
